Laboratory results from the NIST ThermoML archive (doi:10.1016/j.jct.2009.07.020).

Columns and labels:
[1] = 293.15 K, 101.33 kPa, Liquid; for speed of sound: Sing-around technique in a fixed-path interferometer; for mass density: Vibrating tube method
[2] = xn = mol fraction of the nth substance listed; conditions: 101 kPa, Liquid; for speed of sound: Sing-around technique in a fixed-path interferometer; for mass density: Vibrating tube method

BrCCBr [1,2-dibromoethane]
[1]
Conditions | mass density [kg/m3] | speed of sound [m/s]
– | 2179.6 | 1007

BrCCBr [1,2-dibromoethane] + CCCCCCCCCCO
[2]
Conditions | mass density, 293.15 K [kg/m3] | mass density, 313.15 K [kg/m3] | speed of sound, 293.15 K [m/s] | speed of sound, 313.15 K [m/s]
x1 = 0.0713 | 873.696 | 859.289 | 1363.1 | 1296.4
x1 = 0.1171 | 903.742 | 888.874 | 1341.8 | 1275.4
x1 = 0.1704 | 940.915 | 925.398 | 1317.2 | 1251.8
x1 = 0.2858 | 1030.69 | 1013.6 | 1266 | 1202.9
x1 = 0.3911 | 1125.7 | 1106.72 | 1218.3 | 1157.2
x1 = 0.51 | 1252.15 | 1230.3 | 1167.7 | 1108.9
x1 = 0.543 | 1291.44 | 1268.7 | 1153.4 | 1095
x1 = 0.5903 | 1351.8 | 1327.54 | 1134.1 | 1076.8
x1 = 0.6875 | 1492.47 | 1464.54 | 1095.3 | 1040.5
x1 = 0.7289 | 1560.17 | 1530.45 | 1080 | 1025.9
x1 = 0.7873 | 1665.23 | 1632.9 | 1059.7 | 1006.6
x1 = 0.8411 | 1773.36 | 1738.48 | 1042.2 | 990.48
x1 = 0.9006 | 1908.2 | 1870.5 | 1025.5 | 975.34
x1 = 0.9495 | 2033.54 | 1993.5 | 1015.6 | 965.65
x1 = 1 | 2179.6 | 2137.7 | 1007 | 955.97

ClCCCl [1,2-dichloroethane]
[1]
Conditions | mass density [kg/m3] | speed of sound [m/s]
– | 1252.74 | 1212.8

ClCCCl [1,2-dichloroethane] + CCCCCCCCCCO
[2]
Conditions | mass density, 293.15 K [kg/m3] | mass density, 313.15 K [kg/m3] | speed of sound, 293.15 K [m/s] | speed of sound, 313.15 K [m/s]
x1 = 0.0692 | 841.579 | 827.391 | 1382.8 | 1314.9
x1 = 0.1136 | 849.567 | 835.077 | 1373.9 | 1305.7
x1 = 0.2034 | 867.401 | 852.221 | 1355.3 | 1287.4
x1 = 0.2938 | 887.762 | 871.824 | 1335.6 | 1267.8
x1 = 0.3645 | 905.827 | 889.228 | 1319.7 | 1251.3
x1 = 0.507 | 949.509 | 931.327 | 1287.5 | 1217.8
x1 = 0.6043 | 986.214 | 966.695 | 1265.4 | 1195.1
x1 = 0.699 | 1029.23 | 1008.07 | 1244.6 | 1174.3
x1 = 0.7455 | 1053.66 | 1031.55 | 1235.1 | 1164.8
x1 = 0.7816 | 1074.54 | 1051.57 | 1228.3 | 1157.8
x1 = 0.8142 | 1094.99 | 1071.24 | 1222.5 | 1151.9
x1 = 0.8429 | 1114.4 | 1089.86 | 1218.1 | 1147.4
x1 = 0.9034 | 1160.56 | 1134.21 | 1211.6 | 1140.5
x1 = 0.9579 | 1209.39 | 1181.34 | 1210.4 | 1136.8
x1 = 1 | 1252.74 | 1223.38 | 1212.8 | 1136

CCCCCCCCCCO [decan-1-ol]
[1]
Conditions | mass density [kg/m3] | speed of sound [m/s]
– | 829.991 | 1396.4

CCCCCCCCCCO [decan-1-ol] + BrCCBr
[2], x2 = 0
Conditions | mass density [kg/m3] | speed of sound [m/s]
293.15 K | 829.991 | 1396.4
313.15 K | 816.264 | 1328.7

CCCCCCCCCCO [decan-1-ol] + ClC(Cl)=C(Cl)Cl
[2], x2 = 0
Conditions | mass density [kg/m3] | speed of sound [m/s]
293.15 K | 829.991 | 1396.4
313.15 K | 816.264 | 1328.7

CCCCCCCCCCO [decan-1-ol] + ClCCCl
[2], x2 = 0
Conditions | mass density [kg/m3] | speed of sound [m/s]
293.15 K | 829.991 | 1396.4
313.15 K | 816.264 | 1328.7

ClC(Cl)=C(Cl)Cl [tetrachloroethene]
[1]
Conditions | mass density [kg/m3] | speed of sound [m/s]
– | 1622.39 | 1053.8

ClC(Cl)=C(Cl)Cl [tetrachloroethene] + CCCCCCCCCCO
[2]
Conditions | mass density, 293.15 K [kg/m3] | mass density, 313.15 K [kg/m3] | speed of sound, 293.15 K [m/s] | speed of sound, 313.15 K [m/s]
x1 = 0.057 | 854.607 | 840.425 | 1378.1 | 1310.7
x1 = 0.1355 | 890.745 | 875.885 | 1350.2 | 1283.1
x1 = 0.2186 | 932.241 | 916.585 | 1319.8 | 1252.8
x1 = 0.2882 | 969.944 | 953.338 | 1294.8 | 1228.4
x1 = 0.3824 | 1025.8 | 1007.72 | 1260.6 | 1195
x1 = 0.4464 | 1067.31 | 1048.17 | 1237.2 | 1172
x1 = 0.499 | 1103.86 | 1083.69 | 1218.5 | 1153.5
x1 = 0.5849 | 1168.91 | 1146.94 | 1187.2 | 1122.7
x1 = 0.6417 | 1216.01 | 1192.81 | 1166.5 | 1102.9
x1 = 0.7175 | 1284.75 | 1259.72 | 1139.4 | 1076
x1 = 0.7786 | 1345.73 | 1319.21 | 1117.7 | 1054.1
x1 = 0.8527 | 1427.55 | 1398.72 | 1092.4 | 1029.3
x1 = 0.9003 | 1485.31 | 1455.08 | 1077.6 | 1015
x1 = 0.941 | 1538.45 | 1507.24 | 1065.9 | 1005
x1 = 1 | 1622.39 | 1588.98 | 1053.8 | 993.96
